Tests used:
Assay type in all cases: physicochemical
[1] = Changes in shape of crystal forms under high temperature, high humidity and light exposure (Table 26)
From the text: (§1) Consequently, the inventors selected four crystal forms with good reproducibility and ease of purification: crystal forms A, B, G, and Q. These crystal forms were subjected to stability tests under identical conditions of high temperature, high humidity, and light exposure.

[2] = Purity of crystal forms at storage conditions of 25° C. and 40° C. (Table 27)
Description: (§2) The high-performance liquid chromatography (HPLC) analysis method used in the present disclosure is as follows: an Agilent 1260 was used to test the purity and stability of the sample under the conditions shown in Table 18.
The purity of crystal forms A, B, G, and Q, under identical mass and packaging conditions, was investigated at storage conditions of 25° C. and 40° C., as shown in Table 27.

[3] = Stability test of crystal forms under high temperature, high humidity and light exposure (HPLC purity); details: for Purity after 30 days at a temperature of 25° C. with a relative humidity of 90% ± 5%: 90% ± 5% RH; for Purity after 30 days at a temperature of 25° C. with a relative humidity of 90% ± 5% / Purity after 30 days at high temperature (60° C.) / Purity after 30 days at a light intensity of 4500 Lx ± 500 Lx / Initial purity: HPLC purity; for Initial purity: before stress conditions
From the text: as §2, §1

[4] = Stability verification of crystal form G in different solvents (XRPD form after slurry or vapour exposure); details: room temperature, dried under vacuum at 50° C. for 2 hours
Description: The X-ray powder diffraction analysis method used in the present disclosure is as follows: X-ray powder diffraction testing was conducted at room temperature using a Bruker D2 PHASER diffractometer (300 W low-power X-ray emitter). During the test, a silicon wafer was used to sustain the sample powder, and an X-ray Cu (Kα) tube was used, with a Kα2/Kα1 intensity ratio of 0.50 (1.54439 Å/1.5406 Å). The instrument was set to 30 kV and 10 mA, with a step size of 0.02° (2θ), a scanning time of 0.15 s per step, for a total of 1837 steps.
Method 1: The crystal form G (50 mg) was added to 0.5 mL of the corresponding solvent (the solvent may be EtOH, H2O, or a mixture of EtOH/H2O in the ratios of 970/30, 927/73, 855/145, 704/296, v/v).
Method 2: The crystal form G (15 mg) was placed in a 4 mL glass vial, which was then placed inside a 20 mL glass vial containing 3 mL of a volatile solvent (which may be MeOH or EtOH). The 20 mL glass vial was tightly capped and left to stand at room temperature for approximately one week.

[5] = High Temperature (60° C.), 5 Days
[6] = High Temperature (60° C.), 10 Days
[7] = High Temperature (60° C.), 30 Days
[8] = Light intensity of 4500 Lx ± 500 Lx, 5 Days
[9] = Light intensity of 4500 Lx ± 500 Lx, 10 Days
[10] = Light intensity of 4500 Lx ± 500 Lx, 30 Days
[11] = Temperature of 25° C., relative humidity of 90% ± 5%, 5 Days
[12] = Temperature of 25° C., relative humidity of 90% ± 5%, 10 Days
[13] = Temperature of 25° C., relative humidity of 90% ± 5%, 30 Days

| Shape (appearance) [1, 5] | Shape (appearance) [1, 6] | Shape (appearance) [1, 7] | Shape (appearance) ([1]; Initial State) | Shape (appearance) [1, 8] | Shape (appearance) [1, 9] | Shape (appearance) [1, 10] | Shape (appearance) [1, 11] | Shape (appearance) [1, 12] | Shape (appearance) [1, 13] | Purity on storage ([2]; 25° C., 0 Days) | Purity on storage ([2]; 25° C., 15 Days) | Purity on storage ([2]; 25° C., 30 Days) | Purity on storage ([2]; 25° C., 45 Days) | Purity on storage ([2]; 25° C., 60 Days) | Purity on storage ([2]; 25° C., 90 Days) | Purity on storage ([2]; 40° C., 0 Days) | Purity on storage ([2]; 40° C., 15 Days) | Purity on storage ([2]; 40° C., 30 Days) | Purity on storage ([2]; 40° C., 45 Days) | Structure (SMILES) | other results |
| --- | --- | --- | --- | --- | --- | --- | --- | --- | --- | --- | --- | --- | --- | --- | --- | --- | --- | --- | --- | --- | --- |
| Off-white | Pale yellow | Yellow solid | Off-white | Off-white | Pale yellow | Yellow solid | Off-white | Off-white | Off-white | 99.03% | 98.91% | 98.93% | 98.87% | 98.85% | 98.73% | 99.03% | 98.73% | 98.42% | 98.30% | Cc1c(CCC(=O)O)[nH]c2ccc(OCc3ccc(C4CCCC4)c(C(F)(F)F)c3)cc12 [Crystal form A] | Purity on storage ([2]; 40° C., 60 Days): 98.15%; Purity on storage ([2]; 40° C., 90 Days): 97.69%; Purity after 30 days at a temperature of 25° C. with a relative humidity of 90% ± 5% [3]: 98.49%; Purity after 30 days at high temperature (60° C.) [3]: 94.57%; Purity after 30 days at a light intensity of 4500 Lx ± 500 Lx [3]: 94.45%; Initial purity [3]: 99.28% |
| Off-white | Off-white | Off-white | Off-white | Off-white | Pale yellow | Yellow solid | Off-white | Off-white | Off-white | 99.14% | 99.05% | 99.00% | 98.93% | 98.94% | 98.86% | 99.14% | 98.88% | 98.73% | 98.68% | Cc1c(CCC(=O)O)[nH]c2ccc(OCc3ccc(C4CCCC4)c(C(F)(F)F)c3)cc12 [Crystal form B] | Purity on storage ([2]; 40° C., 60 Days): 98.66%; Purity on storage ([2]; 40° C., 90 Days): 98.40%; Purity after 30 days at a temperature of 25° C. with a relative humidity of 90% ± 5% [3]: 98.50%; Purity after 30 days at high temperature (60° C.) [3]: 97.21%; Purity after 30 days at a light intensity of 4500 Lx ± 500 Lx [3]: 94.55%; Initial purity [3]: 99.44% |

| Structure (SMILES) | Shape (appearance) [1, 5] | Shape (appearance) [1, 6] | Shape (appearance) [1, 7] | Shape (appearance) ([1]; Initial State) | Shape (appearance) [1, 8] | Shape (appearance) [1, 9] | Shape (appearance) [1, 10] | Shape (appearance) [1, 11] | Shape (appearance) [1, 12] | Shape (appearance) [1, 13] | Purity on storage ([2]; 25° C., 0 Days) | Purity on storage ([2]; 25° C., 15 Days) | Purity on storage ([2]; 25° C., 30 Days) | Purity on storage ([2]; 25° C., 45 Days) | Purity on storage ([2]; 25° C., 60 Days) | Purity on storage ([2]; 25° C., 90 Days) | Purity on storage ([2]; 40° C., 0 Days) | Purity on storage ([2]; 40° C., 15 Days) | Purity on storage ([2]; 40° C., 30 Days) | Purity on storage ([2]; 40° C., 45 Days) | other results |
| --- | --- | --- | --- | --- | --- | --- | --- | --- | --- | --- | --- | --- | --- | --- | --- | --- | --- | --- | --- | --- | --- |
| Cc1c(CCC(=O)[O][Ca][O]C(=O)CCc2[nH]c3ccc(OCc4ccc(C5CCCC5)c(C(F)(F)F)c4)cc3c2C)[nH]c2ccc(OCc3ccc(C4CCCC4)c(C(F)(F)F)c3)cc12 [Crystal form G] | Off-white solid | Off-white solid | Off-white solid | Off-white solid | Off-white solid | Pale yellow | Yellow solid | Off-white solid | Off-white solid | Off-white solid | 99.48% | 99.42% | 99.43% | 99.43% | 99.41% | 99.36% | 99.48% | 99.28% | 99.27% | 99.24% | Crystal form obtained after stirring in solvent ([4]; EtOH, H2O or EtOH/H2O mixtures, 4 days): obtain the crystal form G; Crystal form obtained after exposure to volatile solvent vapour ([4]; MeOH or EtOH vapour, approximately one week): obtain the crystal form G; Purity on storage ([2]; 40° C., 60 Days): 99.16%; Purity on storage ([2]; 40° C., 90 Days): 99.01%; Stability when stored at 25° C. and 40° C. for 90 days ([2]; summary of Table 27, 90 days): higher stability; Purity after 30 days at a temperature of 25° C. with a relative humidity of 90% ± 5% [3]: 98.78%; Purity after 30 days at high temperature (60° C.) [3]: 99.12%; Purity after 30 days at a light intensity of 4500 Lx ± 500 Lx [3]: 96.02%; Initial purity [3]: 99.60%; Stability under high temperature, high humidity, and light exposure conditions compared to the other crystal forms ([3]; summary of Tables 25 and 26, versus crystal forms A, B, Q): higher stability |

— patent US20250051281A1, “CRYSTALLINE FORM OF AROMATIC RING DERIVATIVE, AND PREPARATION METHOD THEREFOR AND APPLICATION THEREOF” (SHANGHAI JEMINCARE PHARMACEUTICAL CO., LTD, priority 2021, published 2025)
